From US12357603B2, “Acyl sulfonamides for treating cancer” (Bayer Aktiengesellschaft, priority 2019, dated 2025)
Where two headings read alike, the source gives them in different places.

Assays:
[1] = tested on: ESR1 transcription (luciferase signal in MVLN cells); assay: Repression of ESR1 transcription, luciferase reporter in MVLN cells; type: cell-based; conditions: inhibition of luciferase signal in MVLN cells, arithmetic mean
In short: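 Luminescence from an ER-driven Vitellogenin A2 element–luciferase reporter was measured after 24 h of treatment of MVLN cells, in duplicate wells. Alamar Blue (2 h, 530/590 nm) served as a cell-density control.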

[2] = tested on: ZR-75-1 cells; assay: Proliferation assay ZR-75-1 (Alamar Blue, 144 h); type: cell-based; conditions: arithmetic mean, read-out: ZR75-1 proliferation assay, EC50 [M] (arithmetic mean)
In short: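 Alamar Blue fluorescence (590 nm, 2 h reagent step) measured viability after 144 h compound exposure at 37 °C, 5% CO2. Compounds spanned 2.0×10E-5 to 2.0×10E-9 M in 9 dilutions at 0.2% DMSO, in triplicate, added 24 h after plating 3000 cells/well in RPMI 1640 plus 2.5% FBS.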

[3] = tested on: MDA-MB-436 cells; assay: Proliferation assay MDA-MB-436, negative control cell line (Alamar Blue, 144 h); type: cell-based; conditions: arithmetic mean
In short: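 Viability read as Alamar Blue fluorescence (590 nm, 2 h) after 144 h compound exposure at 37 °C, 5% CO2. Cells seeded at 3000 per well in 2.5% FBS DMEM/Ham's F12, dosed a day later over 2.0×10E-9–2.0×10E-5 M in 9 steps with 0.2% DMSO, in triplicate.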

[4] = tested on: DMS 53 cells; assay: Proliferation assay DMS 53 (Alamar Blue, 144 h); type: cell-based; conditions: Homo sapiens, DMS53, small cell lung cancer, read-out: proliferation assays
Description: (§1) Assessment of the Anti-Proliferative Effect of Compounds in Different Cell Lines
(§2) To determine further cancer indications that respond to treatment with KAT6A or KAT6B3 inhibitors various cell lines carrying a KAT6A and/or KAT6B3 focal amplification or high KAT6A and/or KAT6B3 protein expression were used for proliferation assays with selected compounds.
(§3) 24 hours later, cells were treated with compounds (stock solution, 10 mM in DMSO) using the HP D300 Digital Dispenser in a concentration range of 2.0×10E-5 M to 2.0×10E-9 M in a single-dot curve with 9 dilutions and a DMSO concentration of 0.2%. Each sample was prepared as triplicate and rim wells were excluded. Plates were incubated at 37° C. and 5% CO2 for 144 h. Cell viability was measured by adding 10 μL of Alamar Blue Reagent (Invitrogen #DAL 1100) and plates were incubated for 2 h at 37° C. and 5% CO2. Fluorescence was measured at 590 nm wavelength with a Tecan Spark or Victor X3 MTP-Reader (PerkinElmer).

[5] = tested on: LNCAP cells; assay: Proliferation assay LNCAP (Alamar Blue, 144 h); type: cell-based; conditions: Homo sapiens, prostate carcinoma, 10 nM R1881, read-out: proliferation assays
Description: as §1, §2, §3

[6] = tested on: JMSU-1 cells; assay: Proliferation assay JMSU-1 (Alamar Blue, 144 h); type: cell-based; conditions: JMSU1, bladder carcinoma, read-out: proliferation assays
Description: as §1, §2, §3

[7] = tested on: THP-1 cells; assay: Proliferation assay THP-1 (Alamar Blue, 144 h); type: cell-based; conditions: Homo sapiens, THP1, acute monocytic leukemia, read-out: proliferation assays
Description: as §1, §2, §3

[8] = tested on: EFM-19 cells; assay: Proliferation assay EFM-19 (Alamar Blue, 144 h); type: cell-based; conditions: Homo sapiens, EFM19, breast carcinoma, read-out: proliferation assays
Description: as §1, §2, §3

[9] = tested on: COLO 684 cells; assay: Proliferation assay COLO 684 (Alamar Blue, 144 h); type: cell-based; conditions: Homo sapiens, COLO684, uterus adenocarcinoma, read-out: proliferation assays
Description: as §1, §2, §3

[10] = biological target: Recombinant human His-tagged Kat6a protein (amino acids 194-810) (Homo sapiens (Human), UniProt Q92794); assay: Kat6a activity assay (TR-FRET, acetylation of biotinylated Histone-H4-derived peptide); type: biochemical; conditions: 60 mins at 22° C., read-out: KAT6A-DPF/HAT domain IC50 [mol/l] (arithmetic mean)
Chain of Recombinant human His-tagged Kat6a protein (amino acids 194-810) (Q92794 194-810): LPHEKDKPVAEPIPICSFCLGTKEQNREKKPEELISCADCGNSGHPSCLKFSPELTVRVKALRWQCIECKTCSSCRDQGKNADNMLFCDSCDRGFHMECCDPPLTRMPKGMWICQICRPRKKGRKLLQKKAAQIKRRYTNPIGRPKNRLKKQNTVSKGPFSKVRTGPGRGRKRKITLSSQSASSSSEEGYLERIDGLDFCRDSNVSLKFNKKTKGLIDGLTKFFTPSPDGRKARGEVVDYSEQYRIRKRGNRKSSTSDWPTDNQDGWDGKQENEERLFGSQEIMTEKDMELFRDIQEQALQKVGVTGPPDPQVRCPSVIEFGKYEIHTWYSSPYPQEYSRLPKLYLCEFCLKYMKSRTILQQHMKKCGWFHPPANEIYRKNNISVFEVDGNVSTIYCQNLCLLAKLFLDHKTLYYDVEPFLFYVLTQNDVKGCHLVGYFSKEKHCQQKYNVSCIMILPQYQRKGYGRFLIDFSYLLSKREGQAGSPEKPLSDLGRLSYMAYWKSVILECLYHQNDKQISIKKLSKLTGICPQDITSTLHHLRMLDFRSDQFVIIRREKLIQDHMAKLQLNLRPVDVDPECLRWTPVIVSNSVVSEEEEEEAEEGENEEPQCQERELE
In short: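 TR-FRET read-out of H4 K8 acetylation, using anti-acetyl-K8 antibody and streptavidin acceptor, after anacardic acid stop; IC50 from four-parameter regression normalized to DMSO. Reaction: recombinant human Kat6a aa 194-810 (insect-cell derived), 220 nM H4 1-24 peptide, 600 nM acetyl-CoA, pH 8, 22 °C, 60 min, compounds 0.01-20 μM.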

[11] = biological target: Recombinant human GST-tagged Kat6b protein (431-end) (Homo sapiens, UniProt Q8WYB5); assay: Kat6b activity assay (TR-FRET, acetylation of biotinylated Histone-H4-derived peptide); type: biochemical; conditions: 30 mins at 22° C., read-out: KAT6B activity assay IC50 [mol/l] (arithmetic mean)
Chain of Recombinant human GST-tagged Kat6b protein (431-end) (Homo sapiens, UniProt Q8WYB5) (Q8WYB5 whole entry, looked up): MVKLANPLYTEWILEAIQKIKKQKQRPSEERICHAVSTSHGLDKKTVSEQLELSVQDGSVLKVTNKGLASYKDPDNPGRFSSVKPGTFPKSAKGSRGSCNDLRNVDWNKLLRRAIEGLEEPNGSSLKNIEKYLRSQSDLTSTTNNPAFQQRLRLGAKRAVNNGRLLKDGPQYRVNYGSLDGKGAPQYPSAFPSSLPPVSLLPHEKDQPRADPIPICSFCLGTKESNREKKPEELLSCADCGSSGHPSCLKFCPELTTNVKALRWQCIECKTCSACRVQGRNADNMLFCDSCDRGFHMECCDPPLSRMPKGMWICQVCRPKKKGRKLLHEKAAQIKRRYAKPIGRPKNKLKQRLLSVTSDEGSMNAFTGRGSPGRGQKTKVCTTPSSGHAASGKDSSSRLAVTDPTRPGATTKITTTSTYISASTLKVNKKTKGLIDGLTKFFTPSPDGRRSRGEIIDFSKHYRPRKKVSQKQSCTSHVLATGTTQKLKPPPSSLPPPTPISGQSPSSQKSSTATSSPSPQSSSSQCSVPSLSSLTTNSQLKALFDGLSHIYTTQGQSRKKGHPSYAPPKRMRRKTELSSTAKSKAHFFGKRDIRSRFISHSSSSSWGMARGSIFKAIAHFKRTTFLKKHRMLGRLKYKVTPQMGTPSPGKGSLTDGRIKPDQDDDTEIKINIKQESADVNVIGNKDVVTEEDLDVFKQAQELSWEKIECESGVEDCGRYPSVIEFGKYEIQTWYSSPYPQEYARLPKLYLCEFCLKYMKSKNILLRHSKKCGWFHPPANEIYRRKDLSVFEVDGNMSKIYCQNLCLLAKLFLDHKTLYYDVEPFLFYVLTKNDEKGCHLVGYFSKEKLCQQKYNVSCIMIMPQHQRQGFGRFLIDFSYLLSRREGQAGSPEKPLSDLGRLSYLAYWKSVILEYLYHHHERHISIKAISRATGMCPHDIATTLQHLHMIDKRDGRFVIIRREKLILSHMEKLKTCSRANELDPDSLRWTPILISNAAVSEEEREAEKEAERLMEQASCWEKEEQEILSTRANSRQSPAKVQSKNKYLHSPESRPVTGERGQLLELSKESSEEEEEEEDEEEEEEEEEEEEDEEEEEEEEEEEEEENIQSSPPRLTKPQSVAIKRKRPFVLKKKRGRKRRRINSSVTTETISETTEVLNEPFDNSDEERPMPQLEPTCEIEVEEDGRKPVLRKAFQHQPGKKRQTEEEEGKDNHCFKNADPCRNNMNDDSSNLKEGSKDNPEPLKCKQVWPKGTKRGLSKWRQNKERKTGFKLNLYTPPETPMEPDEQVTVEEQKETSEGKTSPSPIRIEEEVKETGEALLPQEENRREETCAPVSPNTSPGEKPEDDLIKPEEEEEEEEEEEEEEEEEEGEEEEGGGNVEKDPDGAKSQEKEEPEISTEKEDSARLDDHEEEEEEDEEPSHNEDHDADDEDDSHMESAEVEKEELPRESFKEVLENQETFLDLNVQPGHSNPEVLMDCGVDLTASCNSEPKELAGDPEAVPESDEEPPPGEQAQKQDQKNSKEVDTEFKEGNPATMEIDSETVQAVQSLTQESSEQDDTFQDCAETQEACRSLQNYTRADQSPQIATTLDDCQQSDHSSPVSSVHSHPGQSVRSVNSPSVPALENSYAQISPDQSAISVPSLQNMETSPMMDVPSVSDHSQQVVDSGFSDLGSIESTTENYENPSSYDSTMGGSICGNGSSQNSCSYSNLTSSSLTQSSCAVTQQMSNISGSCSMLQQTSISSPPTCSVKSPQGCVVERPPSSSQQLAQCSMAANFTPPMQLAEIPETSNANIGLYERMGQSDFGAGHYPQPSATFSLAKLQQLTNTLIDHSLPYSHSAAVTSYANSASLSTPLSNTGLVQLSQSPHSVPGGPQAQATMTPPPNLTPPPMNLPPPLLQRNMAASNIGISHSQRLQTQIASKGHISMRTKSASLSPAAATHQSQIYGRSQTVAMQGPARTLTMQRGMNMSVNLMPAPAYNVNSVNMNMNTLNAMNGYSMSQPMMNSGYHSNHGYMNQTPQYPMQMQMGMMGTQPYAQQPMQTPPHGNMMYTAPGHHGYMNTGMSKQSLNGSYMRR

[12] = biological target: Recombinant human GST-tagged Kat6b protein (431-end); assay: as above; type: biochemical; conditions: 30 mins at 22° C., read-out: KAT6B activity assay IC50 [mol/l] (arithmetic mean)
[13] = tested on: LCLC-97TM1 cells; assay: Proliferation assay LCLC-97TM1 (Alamar Blue, 144 h); type: cell-based; conditions: Homo sapiens, LCLC97TM1, large cell lung carcinoma, read-out: proliferation assays
Description: as §1, §2, §3

[14] = tested on: DMS 114 cells; assay: Proliferation assay DMS 114 (Alamar Blue, 144 h); type: cell-based; conditions: Homo sapiens, DMS114, small cell lung cancer, read-out: proliferation assays
Description: as §1, §2, §3

[15] = tested on: CAMA-1 cells; assay: Proliferation assay CAMA-1 (Alamar Blue, 144 h); type: cell-based; conditions: Homo sapiens, CAMA1, breast adenocarcinoma, read-out: proliferation assays
Description: as §1, §2, §3

[16] = tested on: T47D cells; assay: Proliferation assay T47D (Alamar Blue, 144 h); type: cell-based; conditions: Homo sapiens, breast ductal carcinoma, read-out: proliferation assays
Description: as §1, §2, §3

[17] = Homo sapiens, MDA-MB-436, 144 h

Row | IC50 ([1]; Homo sapiens, MVLN) [nM] | EC50 [3, 17] [nM] | IC50 [10] [nM] | IC50 [12] [nM] | Structure (SMILES) | EC50 ([2]; Homo sapiens, ZR-75-1, 144 h) [M] | further results
1 | 98 | > 20000 | 79.3 | 99.2 | CCCOc1ccccc1S(=O)(=O)NC(=O)c1cc2ccc(N(C)C)cc2o1 [Example 23, 6-(Dimethylamino)-N-(2-propoxybenzene-1-sulfonyl)-1-benzofuran-2-carboxamide] | 2.34e-08 | EC50 [13]: 157 nM; EC50 [4]: 367 nM; EC50 [14]: 205 nM; EC50 [5]: > 20000 nM; EC50 [15]: 415 nM; EC50 [16]: 197 nM; EC50 [8]: 155 nM; EC50 [9]: 92.9 nM
2 | 36.2 | > 20000 | 22.7 | 25.8 | Cc1ccc2cccc(S(=O)(=O)NC(=O)c3cc4ccc(N(C)C)cc4o3)c2n1 [Example 225] | 7.21e-08 | 
3 | 249 | > 20000 | 97.3 | 104 | Cc1cnc2c(S(=O)(=O)NC(=O)c3cc4ccc(N(C)C)cc4o3)cccc2c1 [Example 87, 6-(Dimethylamino)-N-(3-methylquinoline-8-sulfonyl)-1-benzofuran-2-carboxamide] | 4.18e-07 | 
4 | 270 | > 20000 | 453 | 508 | CCOc1cccc(C)c1S(=O)(=O)NC(=O)c1cc2ccc(N(C)C)cc2o1 [Example 116, 6-(Dimethylamino)-N-(2-ethoxy-6-methylbenzene-1-sulfonyl)-1-benzofuran-2-carboxamide] | 3.24e-07 | 
5 |  |  | 84.6 | 66.9 | CCOc1ccccc1S(=O)(=O)NC(=O)c1cc2ccc(N(C)C)cc2o1 [Example 19, 6-(Dimethylamino)-N-(2-ethoxybenzene-1-sulfonyl)-1-benzofuran-2-carboxamide] |  | IC50 [1]: 42.2 nM; EC50 [2]: 5.96e-08 M; EC50 [3]: > 20000 nM; EC50 [13]: 447 nM; EC50 [4]: 130 nM; EC50 [14]: 136 nM; EC50 [5]: 1630 nM; EC50 [6]: 70.6 nM; EC50 [7]: 95.8 nM; EC50 [15]: 268 nM; EC50 [16]: 170 nM; EC50 [8]: 105 nM; EC50 [9]: 156 nM
6 | 457 | > 20000 | 100 | 173 | CC(C)Cc1ccc2cccc(S(=O)(=O)NC(=O)c3cc4ccc(N(C)C)cc4o3)c2n1 [Example 93, 6-(Dimethylamino)-N-[2-(2-methylpropyl)quinoline-8-sulfonyl]-1-benzofuran-2-carboxamide] | 8.56e-07 | 
7 | 15.9 | > 20000 | 8.95 | 19.4 | CN(C)c1ccc2cc(C(=O)NS(=O)(=O)c3cc(C(C)(C)C)ccc3OCc3ccccc3)oc2c1 [Example 179, N-[(2-(Benzyloxy)-5-(tert-butyl)phenyl)sulfonyl]-6-(dimethylamino)benzofuran-2-carboxamide] | 6.79e-08 | 

Continued, compound first:

Row | Structure (SMILES) | IC50 ([1]; Homo sapiens, MVLN) [nM] | EC50 [3, 17] [nM] | IC50 [10] [nM] | IC50 [12] [nM] | EC50 ([2]; Homo sapiens, ZR-75-1, 144 h) [M] | further results
8 | CN(C)c1ccc2cc(C(=O)NS(=O)(=O)c3ccccc3-c3ccccc3)oc2c1 [Example 14, N-([1,1′-Biphenyl]-2-sulfonyl)-6-(dimethylamino)-1-benzofuran-2-carboxamide] | 121 | 18400 |  |  |  | EC50 [2]: 1.2e-07 M; EC50 [4]: 490 nM; EC50 [5]: 4160 nM; EC50 [6]: 605 nM; EC50 [7]: 238 nM; EC50 [8]: 223 nM; EC50 [9]: 184 nM
9 | CC(C)c1ccc(OC2CCC2)c(S(=O)(=O)NC(=O)c2cc3ccc(N(C)C)cc3o2)c1 [Example 184, N-((2-Cyclobutoxy-5-isopropylphenyl)sulfonyl)-6-(dimethylamino)benzofuran-2-carboxamide] | 22.5 | > 20000 | 15.9 |  | 6.98e-07 | IC50 [11]: 47.8 nM
10 | CC(C)c1ccc(OCC2CC2(F)F)c(S(=O)(=O)NC(=O)c2cc3ccc(N(C)C)cc3o2)c1 (racemic) [Example 186, N-((2-((2,2-difluorocyclopropyl)methoxy)-5-isopropylphenyl)sulfonyl)-6-(dimethylamino)benzofuran-2-carboxamide (rac)] | 23.6 | > 20000 | 8.47 |  | 5.59e-08 | IC50 [11]: 26.1 nM
11 | CN(C)c1ccc2cc(C(=O)NS(=O)(=O)c3cccc4c3OC(F)(F)C(F)(F)O4)oc2c1 [Example 134, 6-(Dimethylamino)-N-(2,2,3,3-tetrafluoro-2,3-dihydro-1,4-benzodioxine-5-sulfonyl)-1-benzofuran-2-carboxamide] |  |  | 30.7 |  |  | IC50 [11]: 25.9 nM; IC50 [1]: 76.8 nM; EC50 [2]: 1.26e-07 M; EC50 [3]: > 20000 nM
12 | CCOc1ccccc1S(=O)(=O)NC(=O)c1cc2c(F)cc(N(C)C)cc2o1 [Example 13, 6-(Dimethylamino)-N-(2-ethoxybenzene-1-sulfonyl)-4-fluoro-1-benzofuran-2-carboxamide] | 16.7 | > 20000 | 12.5 | 11.6 | 2.28e-08 | 
13 | CN(C)c1ccc2cc(C(=O)N[S@SP1](=O)(=O)c3cccc4ccccc34)oc2c1 [Example 20, 6-(Dimethylamino)-N-(naphthalene-1-sulfonyl)-1-benzofuran-2-carboxamide] | 343 | > 20000 | 104 | 88.4 | 2.5e-07 | 
14 | CN(C)c1ccc2cc(C(=O)NS(=O)(=O)c3cccc4cccnc34)oc2c1 [Example 73, 6-(Dimethylamino)-N-(quinoline-8-sulfonyl)-1-benzofuran-2-carboxamide] | 99.4 | > 20000 | 117 | 78.5 | 2.48e-07 | 
15 | CCOc1ccc(CC)cc1S(=O)(=O)NC(=O)c1cc2ccc(N(C)C)cc2o1 [Example 143, 6-(Dimethylamino)-N-(2-ethoxy-5-ethylbenzene-1-sulfonyl)-1-benzofuran-2-carboxamide] | 40.8 | > 20000 | 29.3 | 43.1 | 6.42e-08 | 
16 | CCOc1ccccc1S(=O)(=O)NC(=O)c1cc2ccc(N(C)c3ccccc3)cc2o1 [Example 6, N-(2-Ethoxyphenyl)sulfonyl-6-(N-methylanilino)benzofuran-2-carboxamide] | > 20000 | > 20000 | 1830 | 4280 | > 2e-05 | 
